Test results published in patent publication US10570155B2, “Imidazooxazole derivative having antitumor effect, and pharmaceutical composition including same” (KOREA INSTITUTE OF SCIENCE AND TECHNOLOGY, priority 2016, dated 2020).

What was measured:
[1] = test system: LOX IMVI; experiment: NCI cancer cell line panel screening (SRB), melanoma cell line LOX IMVI; type: cell-based, human; details: Homo sapiens, read-out: IC50 against melanoma cell line in vitro
Experimental: (§1) According to the standard protocol (http://dtp.nci.nih.gov/dtpstandard/dwindex/index.isp) of the US National Cancer Institute (NCI) (www.dtp.nci.nih.gov), screening of a cancer cell line panel was performed. […] For a general screening experiment, cells were inoculated in 96-well microtiter plates in 100 μl at a plating density ranging from 5000 cells/well to 40,000 cells/well depending on the doubling time of individual cell lines. After cell inoculation, the microtiter plates were incubated at 37° C., 5% CO2, 95% air, and 100% relative humidity for 24 hours prior to addition of test compounds. 24 hours later, two plates of each cell line were fixed in situ with trichloroacetic acid (TCA) to measure the cell population for each cell line at the time of test compound addition (Tz). Test compounds were solubilized in dimethyl sulfoxide at 400-fold the intended final maximum test concentration, and stored frozen prior to use. At the time of compound addition, an aliquot of frozen concentrate was thawed and diluted to twice the intended final maximum test concentration with a complete medium containing 50 μg/ml of gentamicin. Additional four concentration of 10-fold or ½ log serial dilutions were made to provide a total of five compound concentrations plus control. Aliquots of 100 μl of these different compound dilutions were added to appropriate microtiter wells already containing 100 μl of medium, resulting in the required final compound concentrations.
(§2) Following compound addition, the plates were incubated for additional 48 hours at 37° C., 5% CO2, 95% air, and 100% relative humidity. For adherent cells, the assay was terminated by the addition of cold TCA. Cells were fixed in situ by the gentle addition of 50 μl of cold 50% (w/v) TCA (final concentration, 10% TAC) and incubated at 4° C. for 60 minutes. The supernatant was discarded, and the plates were washed five times with tap water and air-dried. A sulforhodamine B (SRB) solution (100 μl) at 0.4% (w/v) in 1% acetic acid was added to each well, and plates were incubated at room temperature for 10 minutes. After staining, unbound dye was removed by washing five times with 1% acetic acid and the plates were air-dried. […] For suspension cells, the methodology was the same except that the assay was terminated by fixing settled cells at the bottom of the wells by gently adding 50 μl of 80% TCA (final concentration, 16% TCA). Using the seven absorbance measurements [time zero (Tz), control growth (C), and test growth rate in the presence of compound at the five concentration levels (Ti)], the growth percentage was calculated at each of the compound concentration levels. Growth inhibition percentage was calculated as follows: [(Ti−Tz)/(C−Tz)]×100 for concentrations for which Ti>/=Tz [(Ti−Tz)/Tz]×100 for concentrations for which Ti<Tz.

[2] = test system: SK-MEL-2; experiment: NCI cancer cell line panel screening (SRB), melanoma cell line SK-MEL-2; type: cell-based, human; details: Homo sapiens, read-out: IC50 against melanoma cell line in vitro
Experimental: as §1, §2

[3] = test system: SK-MEL-5; experiment: NCI cancer cell line panel screening (SRB), melanoma cell line SK-MEL-5; type: cell-based, human; details: Homo sapiens, read-out: IC50 against melanoma cell line in vitro
Experimental: as §1, §2

[4] = molecular target: B-RAF (Homo sapiens (Human), UniProt P15056); experiment: Protein kinase enzymatic activity (Reaction Biology kinase hotspot, 33P-ATP); type: biochemical; details: read-out: Inhibitory effect against kinase activity, B-RAF (IC50)
Experimental: (§3) Reaction biology kinase hotspot service (http://www.reactionbiology.com) was used to measure IC50. In a final reaction volume of 25 μL, kinase (5 mU to 10 mU) was incubated with 25 mM Tris (pH 7.5), 0.02 mM EGTA, 0.66 mg/ml of myelin basic protein, 10 mM magnesium acetate, and [^33P-ATP] (specific activity of about 500 CPM/pmol, concentration as required). The reaction was initiated by addition of Mg-ATP mix. After incubation for 40 min at room temperature, the reaction was stopped by addition of 5 μl of a 3% phosphoric acid solution. 10 μL of the reaction was then spotted onto a P30 filtermat and washed three times for 5 minutes in 75 mM phosphoric acid and once in methanol prior to drying and scintillation counting.

[5] = molecular target: C-RAF (Homo sapiens (Human), UniProt P04049, Y340D/Y341D); experiment: as above; type: biochemical; details: read-out: Inhibitory effect against kinase activity, C-RAF (IC50)
Experimental: as §3

[6] = molecular target: V600E-B-RAF (Homo sapiens (Human), UniProt P15056, V600E); experiment: as above; type: biochemical; details: read-out: Inhibitory effect against kinase activity, V600E-B-RAF (IC50)
Experimental: as §3

[7] = test system: A375P cell line xenograft; experiment: Tumor-inhibitory effects in melanoma mouse xenograft model; type: in vivo, nude mice; set-up: Tumor size: unit not given here
Experimental: In this experiment, A375P cell line which is a human-derived malignant melanoma cell line was subcutaneously administered to nude mice to prepare xenograft models, and the test material (compound 2II) was administered to the xenograft models to evaluate anti-cancer effects (GI: an excipient control group, G2: a group administered with 20 mg/kg/day of the test material, and G3: a group administered with 50 mg/kg/day of the test material).

[8] = 20 and 50 mg/kg/day, intravenous, twice per week for 3 weeks

Chain of C-RAF (P04049 306-648 Y340D/Y341D limits assumed): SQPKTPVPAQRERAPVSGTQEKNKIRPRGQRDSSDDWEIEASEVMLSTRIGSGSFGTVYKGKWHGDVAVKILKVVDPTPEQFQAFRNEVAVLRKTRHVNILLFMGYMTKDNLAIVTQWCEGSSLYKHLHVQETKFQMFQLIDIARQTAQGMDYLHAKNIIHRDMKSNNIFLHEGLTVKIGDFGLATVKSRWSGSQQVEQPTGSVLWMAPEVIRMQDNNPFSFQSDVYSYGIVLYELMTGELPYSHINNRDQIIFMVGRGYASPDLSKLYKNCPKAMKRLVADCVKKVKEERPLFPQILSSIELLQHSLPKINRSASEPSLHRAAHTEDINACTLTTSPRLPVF
Chain of B-RAF (P15056 whole entry): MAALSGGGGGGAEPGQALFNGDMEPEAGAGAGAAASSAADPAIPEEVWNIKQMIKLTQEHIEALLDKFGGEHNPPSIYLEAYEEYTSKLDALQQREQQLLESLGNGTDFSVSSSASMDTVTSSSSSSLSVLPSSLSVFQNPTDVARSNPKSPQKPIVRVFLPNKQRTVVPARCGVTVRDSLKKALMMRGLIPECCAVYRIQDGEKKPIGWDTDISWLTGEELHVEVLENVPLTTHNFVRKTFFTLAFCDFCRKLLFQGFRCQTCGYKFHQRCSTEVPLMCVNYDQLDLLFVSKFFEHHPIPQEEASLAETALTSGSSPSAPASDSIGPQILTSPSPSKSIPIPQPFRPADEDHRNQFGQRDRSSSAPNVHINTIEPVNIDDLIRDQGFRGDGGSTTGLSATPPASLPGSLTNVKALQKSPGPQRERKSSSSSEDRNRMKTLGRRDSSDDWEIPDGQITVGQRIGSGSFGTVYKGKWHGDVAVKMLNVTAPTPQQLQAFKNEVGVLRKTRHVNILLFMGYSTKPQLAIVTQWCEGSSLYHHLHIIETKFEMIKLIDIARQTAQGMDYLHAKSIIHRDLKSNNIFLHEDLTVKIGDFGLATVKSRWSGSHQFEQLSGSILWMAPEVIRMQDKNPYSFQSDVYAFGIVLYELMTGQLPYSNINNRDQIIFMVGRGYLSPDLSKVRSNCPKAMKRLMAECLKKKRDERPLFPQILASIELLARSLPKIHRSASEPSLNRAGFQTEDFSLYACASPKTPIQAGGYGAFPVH
Chain of V600E-B-RAF (P15056 whole entry V600E): as the sequence (P15056 whole entry) above, with V600E counted along it

## CCN1CCN(CCNc2nccc(-c3c(-c4cccc(O)c4)nc4occn34)n2)S1(=O)=O [2II, 2-Ethyl-5-(2-((4-(6-(3-hydroxylphenyl)imidazo[2,1-b]oxazol-5-yl)pyrimidin-2-yl)amino)ethyl)-1,2,5-thiadiazolidine 1,1-dioxide]
[1]
  IC50: 2530 nM
[2]
  IC50: 2600 nM
[3]
  IC50: 6280 nM
[4]
  IC50: < 0.04 nM
[5]
  IC50: 0.75 nM
[6]
  IC50: 0.67 nM
[7]; [8]
  General symptoms and deaths: no deaths or no abnormalities in general symptoms were observed
  Increase of the tumor size: inhibited in a dose-dependent manner
[7]; G1, G2 (20 mg/kg/day), G3 (50 mg/kg/day)
  Tumor size, difference between experimental groups: no significant difference between all experimental groups
[7]; G2, 20 mg/kg/day, day 0
  Tumor size: 145.08 ± 20.85
[7]; G2, 20 mg/kg/day, day 4
  Tumor size: 271.88 ± 60.05
[7]; G2, 20 mg/kg/day, day 7
  Tumor size: 556.42 ± 161.21
[7]; G2, 20 mg/kg/day, day 11
  Tumor size: 978.91 ± 258.24
[7]; G2, 20 mg/kg/day, day 14
  Tumor size: 1711.5 ± 631.79
[7]; G2, 20 mg/kg/day, day 18
  Tumor size: 2438.5 ± 962.99
[7]; G2, 20 mg/kg/day, day 21
  Tumor size: 3200.6 ± 944.99
[7]; G3, 50 mg/kg/day
  Body weight gain compared with excipient control group: significantly low
[7]; G3, 50 mg/kg/day, at 14 days and 21 days after administration
  Body weight compared with control group (G1): significantly low
[7]; G3, 50 mg/kg/day, day 0
  Tumor size: 149.36 ± 20.91
[7]; G3, 50 mg/kg/day, day 4
  Tumor size: 276.08 ± 86.17
[7]; G3, 50 mg/kg/day, day 7
  Tumor size: 442.88 ± 73.08
[7]; G3, 50 mg/kg/day, day 11
  Tumor size: 754.16 ± 211.86
[7]; G3, 50 mg/kg/day, day 14
  Tumor size: 1174.7 ± 411.22
[7]; G3, 50 mg/kg/day, day 18
  Tumor size: 1543.9 ± 411.21
[7]; G3, 50 mg/kg/day, day 21
  Tumor size: 2063.1 ± 657.93
